Laboratory results from patent US20250099548A1, “PHARMACEUTICAL COMPOSITION FOR PREVENTING OR TREATING DEGENERATIVE BRAIN DISEASES, CONTAINING GLUCAGON-LIKE PEPTIDE-1 AND INTERLEUKIN-1 RECEPTOR ANTAGONIST” (GI INNOVATION, INC., priority 2022, published 2025).

Experiments:
Assay type in all cases: in vivo, mouse
[1] = tested on: Tg-APP/PS1 mice; assay: Passive avoidance test; conditions: Example 1; 72 and 120 hours after the shock; 1.2 mg/kg intraperitoneal, 4 times for 2 weeks
Experimental: The test substance was prepared by diluting GI210B1 obtained in Preparation Example 1 in saline, and it was intraperitoneally administered to 6.5-month-old Tg-APP/PS1 mice at a concentration of 1.2 mg/kg a total of 4 times for 2 weeks (FIG. 10).
In the Tg-APP/PS1 mice intraperitoneally administered with GI210B1 at 6.5 months of age in Example 1.1 above, behavioral characteristics of cognitive function were evaluated at 7.5 to 8.0 months of age. In order to evaluate the behavioral characteristics of cognitive function, a novel object recognition test (NOR test), a passive avoidance test, and a water maze test were performed. At that time, the three experiments for behavioral evaluation were performed according to a method known in the art.
The passive avoidance test is a test to confirm fear/anxiety memory by associating spatial contextual cues and shock in mice for long periods of 24 hours, 72 hours, and 120 hours. The passive avoidance test is a cognitive behavior evaluation experiment conducted to confirm memories associated with spatial and contextual cues, specifically fear and anxiety. […]
Specifically, mice have a tendency to prefer a dark place. […] The mice prepared in Example 1.1 were learned in the same manner as above, and the time for each step was measured.

[2] = tested on: Tg-APP/PS1 mice; assay: MAP-2 immunofluorescence staining of hippocampal CA1 region; conditions: 4 times for 2 weeks
From the text: Long-term memory is regulated at synapses between axons of neurons and dendrites of target neurons, and the microstructure of neurons is greatly influenced by the state of neuron health. Changes in the microstructure of dendrites of neurons are important for maintaining memory. The microstructure of the dendrites of such neurons can be observed as an image by staining with an anti-MAP-2 antibody (GeneTex, CatNo. GTX133109) located in the dendrites.
Therefore, in order to determine the mechanism of action of cognitive function improvement and memory recovery effects of GI210B1, the Tg-APP/PS1 mice administered with GI210B1 (Tg+GI210B1), the wild type mice (WT) as a normal group, and the Tg-APP/PS1 mice (Tg or Tg+Veh) as a control group were sacrificed, and then the brain tissue was extracted, and the microstructural status of the dendrites (dendritic process) of the hippocampus was analyzed.
In the same manner as in Example 1.4.1 above, the mice from each group were sacrificed, and then the brain tissue was extracted, and the microstructural status of the dendrites of the hippocampus was analyzed.

[3] = tested on: Tg-APP/PS1 mice; assay: Aβ plaque deposition in brain tissue, thioflavin S staining; conditions: 4 times for 2 weeks
Experimental: Accordingly, in order to confirm the effect of treating Alzheimer's disease by intraperitoneal administration of GI210B1, the Tg-APP/PS1 mice administered with GI210B1 (Tg+GI210B1) and the Tg-APP/PS1 mice (Tg+Veh), a control group, were sacrificed, and then the brain tissue was extracted, and Aβ plaques were stained using thioflavin S, and then the degree of Aβ plaque deposition in the parietal cortex, hippocampus, and piriform cortex regions was analyzed.
Specifically, for immunohistochemical analysis using thioflavin S staining, the brain was collected after perfusion for the mouse with 4% paraformaldehyde, and then the brain was further fixed with 4% paraformaldehyde overnight at 4° C. The brain tissue sections were prepared by cutting the fixed brain tissue to a thickness of […] using a vibratome. The prepared brain tissue sections were stained using thioflavin S by a known method. At that time, the stained image was analyzed using MetaMorph Microscopy Automation & Image Analysis software (Molecular device). The amount of plaque was quantified and expressed as the number of plaques per unit area and the sum of the plaque areas.
The Tg-APP/PS1 mice were prepared in the same manner as in Example 1.1 above. The test substance was prepared by diluting GI210B1, GI210B1C1, or GI210B1CN obtained in Preparation Example 1 to 3 in saline. Thereafter, the prepared test substances were each intraperitoneally administered to the 6.5-month-old Tg-APP/PS1 mice at a concentration of 1.2 mg/kg, 0.7778 mg/kg, and 1.1745 mg/kg a total of 4 times for 2 weeks (FIG. 23).
In the same manner as in Example 1.3 above, the mice were sacrificed, and then the brain tissue was extracted, and the degree of Aβ plaque deposition in the parietal cortex, hippocampus, and piriform cortex regions was analyzed using thioflavin S, which stains Aβ plaques.
The Tg-APP/PS1 mice were prepared in the same manner as in Example 1.1 above. The test substance was prepared by diluting GLP-1 (Peptron), GI210B1C1 obtained in Preparation Example 2 and GI212B2 obtained in Preparation Example 4, anakinra (Amgen, Kineret-inj), and the anti-IL-1 antibody (BioXcell, BE0246) in saline to concentrations of 0.0371 mg/kg, 1.1745 mg/kg, 1.8722 mg/kg, 0.2041 mg/kg, and 1.77 mg/kg, respectively. Thereafter, the prepared test substances were intraperitoneally administered to the 6.5-month-old Tg-APP/PS1 mice a total of 4 times for 2 weeks, as shown in Table 6 below (FIG. 30). […]
In the same manner as in Example 1.3 above, the mice from each group were sacrificed, and then the brain tissue was extracted, and the degree of Aβ plaque deposition in the parietal cortex, hippocampus, and piriform cortex regions was analyzed using thioflavin S, which stains Aβ plaques.

[4] = tested on: Tg-APP/PS1 mice; assay: DCX immunochemical staining of hippocampal DG region; conditions: Example 1; GI210B1 1.2 mg/kg intraperitoneal, 4 times for 2 weeks
From the text: DCX (doublecortin) is continuously expressed during the 2-3 weeks during which immature neurons mature, and is expressed in […]. For this reason, DCX is used as a marker of neurogenesis, indicating the degree of neuronal differentiation and after the metaphase of newly generated neurons.
In order to confirm the effect of GI210B1 on the decreased neurogenesis in the DG (dentate gyrus) region of the hippocampus of Tg mice, the Tg-APP/PS1 mice administered with GI210B1 (Tg+GI210B1), the wild type mice (WT) as a normal group, and the Tg-APP/PS1 mice (Tg or Tg+Veh) as a control group were sacrificed, and then the brain tissue was extracted, and the DG region of the hippocampus was stained with DCX.
In the same manner as in Example 1.4.2 above, the mice from each group were sacrificed, and then the brain tissue was extracted, and the DG region of the hippocampus was stained with DCX.

[5] = Example 2, GI210B1, GI210B1C1, GI210B1CN at 1.2, 0.7778, 1.1745 mg/kg intraperitoneal

GI210B1: fusion protein dimer comprising GLP-1 (SEQ ID NO: 2), IgG4 Fc domain and IL-1Ra; SEQ ID NO: 10
moving to the dark chamber after foot shock [1]: had a tendency not to move to the dark chamber | expression level of MAP-2 in the CA1 region of the hippocampus ([2]; Example 1, GI210B1 1.2 mg/kg intraperitoneal): recovered to the level of the normal group (WT) | expression level of MAP-2 in the CA1 region of the hippocampus [2, 5]: higher than that of the control group (Tg+Veh) | amount of plaque deposited in the brain (number of plaques per unit area and sum of plaque areas) ([3]; Example 1, parietal cortex, hippocampus, piriform cortex, GI210B1 1.2 mg/kg intraperitoneal): tended to be reduced compared to the control group | amount of plaque deposited in the brain (number of plaques per unit area and sum of plaque areas) [3, 5]: statistically significantly reduced compared to the control group (Tg+Veh) | amount of plaque deposited in the brain (number of plaques per unit area and sum of plaque areas) ([3]; Example 2, GI210B1, GI210B1C1, GI210B1CN at 1.2, 0.7778, 1.1745 mg/kg intraperitoneal, listed as G2101B1): tended to be reduced | number of DCX positive cells in the DG region of the hippocampus [4]: increased compared to the control group (Tg), and was recovered to a level similar to that of the normal group (WT)
